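How tested: cells in 96-well plates exposed to compound for 48 hours at five concentrations. GI50 marks 50% less growth. Definition used: TGI = concentration required for complete inhibition of growth.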
Assays:
Experiment in all cases: inhibition of tumour cell growth, NCI panel, 48 h
RPMI-8226 leukemia = test system: RPMI-8226 leukemia
OVCAR-3 ovarian = test system: OVCAR-3 ovarian
HOP-18 NSCLC = test system: HOP-18 NSCLC
NCI-H460 lung = test system: NCI-H460 lung
A498 renal = test system: A498 renal
XF 498 CNS = test system: XF 498 CNS
UO-31 renal = test system: UO-31 renal
HL-60(TB) leukemia = test system: HL-60(TB) leukemia
TK-10 renal = test system: TK-10 renal
SK-OV-3 ovarian = test system: SK-OV-3 ovarian
SN12C renal = test system: SN12C renal
RXF 393 renal = test system: RXF 393 renal
SK-MEL-5 melanoma = test system: SK-MEL-5 melanoma
MCF7 breast = test system: MCF7 breast
KM12 colon = test system: KM12 colon
UACC-62 melanoma = test system: UACC-62 melanoma
SK-MEL-2 melanoma = test system: SK-MEL-2 melanoma
SNB-78 CNS = test system: SNB-78 CNS
NCI-H522 lung = test system: NCI-H522 lung

## C[CH2][Sn]([CH2]C)([O]C(=O)c1cccc(OC)c1)[O][Sn]([CH2]C)([CH2]C)[O]C(=O)c1cccc(OC)c1
RPMI-8226 leukemia
  GI50: 13 µM
  TGI: 54.3 µM
OVCAR-3 ovarian
  GI50: 58 µM
  TGI: > 100 µM
HOP-18 NSCLC
  GI50: 15.9 µM
  TGI: 29.3 µM
NCI-H460 lung
  GI50: > 71 µM
  TGI: > 100 µM
A498 renal
  GI50: 16 µM
  TGI: 30.2 µM
XF 498 CNS
  GI50: 16.1 µM
  TGI: 29.6 µM
UO-31 renal
  GI50: 34 µM
  TGI: > 53.5 µM
HL-60(TB) leukemia
  GI50: 19.2 µM
  TGI: 70.9 µM
TK-10 renal
  GI50: 16.8 µM
  TGI: 30.7 µM
SK-OV-3 ovarian
  GI50: > 100 µM
  TGI: > 100 µM
SN12C renal
  GI50: 19.9 µM
  TGI: 44.9 µM
RXF 393 renal
  GI50: 15 µM
  TGI: 28.4 µM
SK-MEL-5 melanoma
  GI50: 42.9 µM
  TGI: > 64 µM
MCF7 breast
  GI50: 10.1 µM
  TGI: 26.6 µM
KM12 colon
  GI50: > 100 µM
  TGI: > 100 µM
UACC-62 melanoma
  GI50: 16.6 µM
  TGI: 31.4 µM
SK-MEL-2 melanoma
  GI50: 16.6 µM
  TGI: 37.4 µM
SNB-78 CNS
  GI50: 16.2 µM
  TGI: 32.9 µM
NCI-H522 lung
  GI50: 0.879 µM
  TGI: 2.4 µM
